± gives the uncertainty stated by the source.
Assay: xn = mol fraction of the nth substance listed
Conditions: 100 kPa

Molecule `COCCOCCOCCOCCOC` + CCCCCC[n+]1ccn(C)c1.O=S(=O)([N-]S(=O)(=O)C(F)(F)F)C(F)(F)F has a viscosity (288.15 K, x1 = 0.099) of 96 ± 2 mPa·s.
Work on `Cn1cc[nH+]c1.[Cl-]` + O yielded a viscosity (278.15 K, x1 = 9.081e-05) of 1.521 ± 0.011 mPa·s, a viscosity (278.15 K, x1 = 0.000182) of 1.523 ± 0.011 mPa·s and a viscosity (278.15 K, x1 = 0.0003637) of 1.525 ± 0.011 mPa·s. For the same molecule, the viscosity (278.15 K, x1 = 0.0005491) was 1.528 ± 0.011 mPa·s, the viscosity (278.15 K, x1 = 0.0007277) was 1.53 ± 0.011 mPa·s and the viscosity (278.15 K, x1 = 0.0008883) was 1.532 ± 0.011 mPa·s. It also gave a viscosity (278.15 K, x1 = 0.001091) of 1.535 ± 0.011 mPa·s, a viscosity (278.15 K, x1 = 0.001364) of 1.539 ± 0.011 mPa·s and a viscosity (278.15 K, x1 = 0.00178) of 1.543 ± 0.012 mPa·s. It also gave a viscosity (283.15 K, x1 = 9.081e-05) of 1.308 ± 0.01 mPa·s, a viscosity (283.15 K, x1 = 0.000182) of 1.309 ± 0.01 mPa·s and a viscosity (283.15 K, x1 = 0.0003637) of 1.311 ± 0.01 mPa·s. The viscosity (283.15 K, x1 = 0.0005491) was 1.313 ± 0.01 mPa·s, the viscosity (283.15 K, x1 = 0.0007277) was 1.314 ± 0.01 mPa·s and the viscosity (283.15 K, x1 = 0.0008883) was 1.316 ± 0.01 mPa·s. For the same molecule, the viscosity (283.15 K, x1 = 0.001091) was 1.319 ± 0.01 mPa·s, the viscosity (283.15 K, x1 = 0.001364) was 1.32 ± 0.01 mPa·s and the viscosity (283.15 K, x1 = 0.00178) was 1.323 ± 0.01 mPa·s. For the same molecule, the viscosity (288.15 K, x1 = 9.081e-05) was 1.139 ± 0.009 mPa·s, the viscosity (288.15 K, x1 = 0.000182) was 1.141 ± 0.009 mPa·s and the viscosity (288.15 K, x1 = 0.0003637) was 1.142 ± 0.009 mPa·s. The viscosity (288.15 K, x1 = 0.0005491) was 1.144 ± 0.009 mPa·s, the viscosity (288.15 K, x1 = 0.0007277) was 1.145 ± 0.009 mPa·s and the viscosity (288.15 K, x1 = 0.0008883) was 1.146 ± 0.009 mPa·s. For the same molecule, the viscosity (288.15 K, x1 = 0.001091) was 1.149 ± 0.009 mPa·s, the viscosity (288.15 K, x1 = 0.001364) was 1.151 ± 0.009 mPa·s and the viscosity (288.15 K, x1 = 0.00178) was 1.153 ± 0.009 mPa·s. For the same molecule, the viscosity (293.15 K, x1 = 9.081e-05) was 1.003 ± 0.008 mPa·s, the viscosity (293.15 K, x1 = 0.000182) was 1.004 ± 0.008 mPa·s and the viscosity (293.15 K, x1 = 0.0003637) was 1.005 ± 0.008 mPa·s. For the same molecule, the viscosity (293.15 K, x1 = 0.0005491) was 1.007 ± 0.008 mPa·s, the viscosity (293.15 K, x1 = 0.0007277) was 1.009 ± 0.008 mPa·s and the viscosity (293.15 K, x1 = 0.0008883) was 1.01 ± 0.008 mPa·s. For the same molecule, the viscosity (293.15 K, x1 = 0.001091) was 1.013 ± 0.008 mPa·s, the viscosity (293.15 K, x1 = 0.001364) was 1.014 ± 0.008 mPa·s and the viscosity (293.15 K, x1 = 0.00178) was 1.018 ± 0.008 mPa·s. It also gave a viscosity (298.15 K, x1 = 9.081e-05) of 0.89 ± 0.007 mPa·s, a viscosity (298.15 K, x1 = 0.000182) of 0.891 ± 0.007 mPa·s and a viscosity (298.15 K, x1 = 0.0003637) of 0.892 ± 0.007 mPa·s. It also gave a viscosity (298.15 K, x1 = 0.0005491) of 0.894 ± 0.007 mPa·s, a viscosity (298.15 K, x1 = 0.0007277) of 0.896 ± 0.007 mPa·s and a viscosity (298.15 K, x1 = 0.0008883) of 0.897 ± 0.007 mPa·s. For the same molecule, the viscosity (298.15 K, x1 = 0.001091) was 0.899 ± 0.007 mPa·s, the viscosity (298.15 K, x1 = 0.001364) was 0.901 ± 0.007 mPa·s and the viscosity (298.15 K, x1 = 0.00178) was 0.904 ± 0.007 mPa·s. For the same molecule, the viscosity (303.15 K, x1 = 9.081e-05) was 0.798 ± 0.006 mPa·s, the viscosity (303.15 K, x1 = 0.000182) was 0.799 ± 0.006 mPa·s and the viscosity (303.15 K, x1 = 0.0003637) was 0.8 ± 0.006 mPa·s. It also gave a viscosity (303.15 K, x1 = 0.0005491) of 0.801 ± 0.006 mPa·s, a viscosity (303.15 K, x1 = 0.0007277) of 0.803 ± 0.006 mPa·s and a viscosity (303.15 K, x1 = 0.0008883) of 0.804 ± 0.006 mPa·s. It also gave a viscosity (303.15 K, x1 = 0.001091) of 0.805 ± 0.006 mPa·s, a viscosity (303.15 K, x1 = 0.001364) of 0.806 ± 0.006 mPa·s and a viscosity (303.15 K, x1 = 0.00178) of 0.808 ± 0.006 mPa·s. It also gave a viscosity (308.15 K, x1 = 9.081e-05) of 0.719 ± 0.006 mPa·s, a viscosity (308.15 K, x1 = 0.000182) of 0.72 ± 0.006 mPa·s and a viscosity (308.15 K, x1 = 0.0003637) of 0.721 ± 0.006 mPa·s. For the same molecule, the viscosity (308.15 K, x1 = 0.0005491) was 0.722 ± 0.006 mPa·s, the viscosity (308.15 K, x1 = 0.0007277) was 0.723 ± 0.006 mPa·s and the viscosity (308.15 K, x1 = 0.0008883) was 0.724 ± 0.006 mPa·s. It also gave a viscosity (308.15 K, x1 = 0.001091) of 0.725 ± 0.006 mPa·s, a viscosity (308.15 K, x1 = 0.001364) of 0.727 ± 0.006 mPa·s and a viscosity (308.15 K, x1 = 0.00178) of 0.728 ± 0.006 mPa·s. The viscosity (313.15 K, x1 = 9.081e-05) was 0.652 ± 0.005 mPa·s, the viscosity (313.15 K, x1 = 0.000182) was 0.653 ± 0.005 mPa·s and the viscosity (313.15 K, x1 = 0.0003637) was 0.654 ± 0.005 mPa·s. It also gave a viscosity (313.15 K, x1 = 0.0005491) of 0.655 ± 0.005 mPa·s, a viscosity (313.15 K, x1 = 0.0007277) of 0.656 ± 0.005 mPa·s and a viscosity (313.15 K, x1 = 0.0008883) of 0.657 ± 0.005 mPa·s. It also gave a viscosity (313.15 K, x1 = 0.001091) of 0.658 ± 0.005 mPa·s, a viscosity (313.15 K, x1 = 0.001364) of 0.659 ± 0.005 mPa·s and a viscosity (313.15 K, x1 = 0.00178) of 0.662 ± 0.005 mPa·s.
Work on `CC(CC(C)(C)C)CP(=O)([O-])CC(C)CC(C)(C)C.CCCCCCCCCCCCCC[P+](CCCCCC)(CCCCCC)CCCCCC` + CCC(=O)O + O yielded a viscosity (298.15 K, x2 = 0.02049, x1 = 0.1002) of 133 ± 48 mPa·s, a viscosity (298.15 K, x2 = 0.02069, x1 = 0.09762) of 145 ± 52 mPa·s and a viscosity (298.15 K, x2 = 0.04451, x1 = 0.115) of 139 ± 42 mPa·s. The viscosity (298.15 K, x2 = 0.231, x1 = 0.1669) was 147 ± 45 mPa·s, the viscosity (298.15 K, x2 = 0.3019, x1 = 0.1781) was 150 ± 46 mPa·s and the viscosity (298.15 K, x2 = 0.3925, x1 = 0.1645) was 145 ± 45 mPa·s. It also gave a viscosity (298.15 K, x2 = 0.4515, x1 = 0.1697) of 133 ± 42 mPa·s, a viscosity (298.15 K, x2 = 0.4652, x1 = 0.1675) of 127 ± 39 mPa·s and a viscosity (298.15 K, x2 = 0.4969, x1 = 0.154) of 133 mPa·s. For the same molecule, the viscosity (298.15 K, x2 = 0.5235, x1 = 0.1181) was 81 ± 33 mPa·s, the viscosity (298.15 K, x2 = 0.5255, x1 = 0.1239) was 85 ± 34 mPa·s and the viscosity (298.15 K, x2 = 0.5271, x1 = 0.1398) was 114 ± 36 mPa·s. It also gave a viscosity (298.15 K, x2 = 0.5377, x1 = 0.108) of 60 ± 22 mPa·s and a viscosity (298.15 K, x2 = 0.571, x1 = 0.09705) of 52 ± 18 mPa·s.

— the CheMixHub ionic liquid set
